Assays:
Type in all cases: in vivo
kochia (Bassia scoparia) = assay: Test A1 postemergence, kochia; settings: for Kochia plant response rating: postemergence; for Plant response rating, Kochia: Postemergence
Outline: (§1)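 Both timings started from seed in a loam-sand blend. Preemergence pots got a directed soil application immediately; postemergence pots were sprayed when seedlings had one or two leaves and stood 2–10 cm. Each compound was prepared in a non-phytotoxic solvent plus surfactant.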

[1] = tested on: blackgrass (Alopecurus myosuroides); assay: Test A1 preemergence, blackgrass
Outline: as §1

[2] = tested on: Pigweed, Palmer (palmer amaranth, palmer pigweed, Amaranthus palmeri); assay: Test A1 preemergence, Pigweed, Palmer
Outline: as §1

[3] = 31 g ai/ha, 0 to 100 scale (0 no effect, 100 complete control)
[4] = 125 g ai/ha, 0 to 100 scale, 0 no effect, 100 complete control
[5] = 125 g ai/ha, 0 to 100 scale (0 no effect, 100 complete control), 10 days
[6] = 500 g ai/ha, 0 to 100 scale (0 no effect, 100 complete control)
[7] = 125 g ai/ha, 0 to 100 scale (0 no effect, 100 complete control)
[8] = 31 g ai/ha, 0 to 100 scale (0 no effect, 100 complete control), 10 days

| SMILES | Kochia plant response rating (kochia (Bassia scoparia); [3]) | Plant response rating, Kochia (kochia (Bassia scoparia); 125 g ai/ha, 0 to 100 scale) | Plant response rating, Blackgrass [1, 3] | Plant response rating, Blackgrass [1, 4] | Plant response rating, Pigweed, Palmer [2, 3] | Plant response rating, Pigweed, Palmer [2, 4] | Plant response rating, Kochia (kochia (Bassia scoparia); [5]) | Plant response rating, Blackgrass [1, 6] | Plant response rating, Pigweed, Palmer [2, 6] | Plant response rating, Kochia (kochia (Bassia scoparia); 500 g ai/ha, 0 to 100 scale) | Plant response rating, Pigweed, Palmer [2, 7] | Plant response rating, Kochia (kochia (Bassia scoparia); [8]) |
| --- | --- | --- | --- | --- | --- | --- | --- | --- | --- | --- | --- | --- |
| CCOC(=O)N(c1cc(C2=NOC3CCCC23)c(CC)cc1C)S(=O)(=O)C(F)(F)F (centres unmarked) [Compound 379] | 0 | 40 | – | – | – | – | – | – | – | – | – | – |
| Cc1cc(Cl)c(NS(=O)(=O)C(F)(F)F)cc1N1CC2(CCCCC2)OC1=O [Compound 394] | 40 | – | 0 | 70 | 20 | 90 | 80 | – | – | – | – | – |
| Cc1cc(C)c(N(COC(=O)C(C)(C)C)S(=O)(=O)C(F)(F)F)cc1N1CCC2(CCC(F)(F)CC2)C1=O [Compound 397] | – | – | – | 40 | – | 90 | 90 | 90 | 100 | 90 | – | – |
| CCOc1cccc2c1C(=O)N(c1cc(N(COC(=O)C(C)(C)C)S(=O)(=O)Cl)c(C)cc1C)C2 [Compound 414] | 1 | – | – | – | – | – | 50 | – | – | – | 40 | – |
| Cc1cc(C)c(C2=NOC(C(C)C)C2)cc1NS(=O)(=O)C(F)(F)F (centres unmarked) [Compound 381] | 0 | – | – | – | 30 | 90 | 20 | – | – | – | – | – |
| Cc1cc(C)c(N(S(=O)(=O)C(F)(F)F)S(=O)(=O)C(F)(F)F)cc1N1CCC2(CCC(C(F)(F)F)CC2)C1=O (centres unmarked) [Compound 399] | 30 | – | 20 | 60 | 30 | 60 | 70 | – | – | – | – | – |
| Cc1c(NS(=O)(=O)C(F)(F)F)cc(C2=NOC3(CCCC3)C2)c(C)c1C [Compound 380] | 30 | – | – | – | 30 | 40 | 50 | – | – | – | – | – |
| Cc1cc(Cl)c(NS(=O)(=O)C(F)(F)F)cc1N1CCC2(CCCCC2)C1=O [Compound 393] | 20 | – | 70 | 90 | 30 | 60 | 60 | – | – | – | – | – |
| Cc1cc(C)c(N(COC(=O)C(C)(C)C)S(=O)(=O)C(F)(F)F)cc1N1CCC2(CCC(C(F)(F)F)CC2)C1=O (centres unmarked) [Compound 403] | 10 | – | 0 | 0 | 0 | 0 | 40 | – | – | – | – | – |
| Cc1cc(C)c(N2Cc3cccc(Br)c3C2=O)cc1NS(=O)(=O)Cl [Compound 415] | 40 | – | – | – | – | – | 70 | – | – | – | 60 | – |
| Cc1ccc(C2=NOC3CCCC23)cc1NS(=O)(=O)C(F)(F)F (centres unmarked) [Compound 377] | 20 | 30 | – | – | 0 | 0 | – | – | – | – | – | – |
| COC1CCC2(CC1)CCN(c1cc(NS(=O)(=O)C(F)(F)F)c(C)cc1C)C2=O (centres unmarked) [Compound 398] | 20 | – | 60 | 90 | 80 | 100 | 70 | – | – | – | – | – |
| CCOC(=O)N(c1cc(C(=O)N2CCSCC2)c(C)c(C)c1C)S(=O)(=O)C(F)(F)F [Compound 286] | – | 50 | – | – | 50 | 70 | – | – | – | – | – | 20 |
| Cc1c(C(=O)N2CCSCC2)cc(N(COC(=O)C(C)(C)C)S(=O)(=O)C(F)(F)F)c(C)c1C [Compound 285] | – | 90 | – | – | 10 | 20 | – | – | – | – | – | 10 |
| Cc1c(C2=NOC3(CCCC3)C2)cc(N(COC(=O)C(C)(C)C)S(=O)(=O)C(F)(F)F)c(C)c1C [Compound 382] | 0 | – | – | – | 0 | 20 | 30 | – | – | – | – | – |
| COc1cccc2c1C(=O)N(c1cc(N(COC(=O)C(C)(C)C)S(=O)(=O)Cl)c(C)cc1C)C2 [Compound 413] | 20 | – | 20 | 20 | – | – | 80 | – | – | – | 90 | – |
| Cc1cc(C)c(N2Cc3cccc(C)c3C2=O)cc1NS(=O)(=O)Cl [Compound 408] | 60 | – | 90 | 100 | – | – | 60 | – | – | – | 60 | – |
| CCc1cc(C)c(N(COC(=O)C(C)(C)C)S(=O)(=O)C(F)(F)F)cc1C1=NOC2CCCC12 (centres unmarked) [Compound 378] | 0 | 60 | – | – | 0 | 20 | – | – | – | – | – | – |
| Cc1c(NS(=O)(=O)C(F)(F)F)cc(C(=O)N2CCSCC2)c(C)c1C [Compound 283] | – | 60 | – | – | 10 | 50 | – | – | – | – | – | 20 |

Source: patent US20230278972A1, “SUBSTITUTED HALOALKYL SULFONANILIDE HERBICIDES” (FMC Corporation, priority 2020, published 2023)
